According to ChEMBL document CHEMBL2074243, “Mitochondria-targeting drug oligomycin blocked P-glycoprotein activity and triggered apoptosis in doxorubicin-resistant HepG2 cells” (Chemotherapy, 2004):

Molecular target: ATP-dependent translocase ABCB1 (Homo sapiens, UniProt P08183)
Test: TP_TRANSPORTER: drug resistance in R-HepG2 cells
Type: functional, cell-based

Sequence of ATP-dependent translocase ABCB1 (P08183 whole entry): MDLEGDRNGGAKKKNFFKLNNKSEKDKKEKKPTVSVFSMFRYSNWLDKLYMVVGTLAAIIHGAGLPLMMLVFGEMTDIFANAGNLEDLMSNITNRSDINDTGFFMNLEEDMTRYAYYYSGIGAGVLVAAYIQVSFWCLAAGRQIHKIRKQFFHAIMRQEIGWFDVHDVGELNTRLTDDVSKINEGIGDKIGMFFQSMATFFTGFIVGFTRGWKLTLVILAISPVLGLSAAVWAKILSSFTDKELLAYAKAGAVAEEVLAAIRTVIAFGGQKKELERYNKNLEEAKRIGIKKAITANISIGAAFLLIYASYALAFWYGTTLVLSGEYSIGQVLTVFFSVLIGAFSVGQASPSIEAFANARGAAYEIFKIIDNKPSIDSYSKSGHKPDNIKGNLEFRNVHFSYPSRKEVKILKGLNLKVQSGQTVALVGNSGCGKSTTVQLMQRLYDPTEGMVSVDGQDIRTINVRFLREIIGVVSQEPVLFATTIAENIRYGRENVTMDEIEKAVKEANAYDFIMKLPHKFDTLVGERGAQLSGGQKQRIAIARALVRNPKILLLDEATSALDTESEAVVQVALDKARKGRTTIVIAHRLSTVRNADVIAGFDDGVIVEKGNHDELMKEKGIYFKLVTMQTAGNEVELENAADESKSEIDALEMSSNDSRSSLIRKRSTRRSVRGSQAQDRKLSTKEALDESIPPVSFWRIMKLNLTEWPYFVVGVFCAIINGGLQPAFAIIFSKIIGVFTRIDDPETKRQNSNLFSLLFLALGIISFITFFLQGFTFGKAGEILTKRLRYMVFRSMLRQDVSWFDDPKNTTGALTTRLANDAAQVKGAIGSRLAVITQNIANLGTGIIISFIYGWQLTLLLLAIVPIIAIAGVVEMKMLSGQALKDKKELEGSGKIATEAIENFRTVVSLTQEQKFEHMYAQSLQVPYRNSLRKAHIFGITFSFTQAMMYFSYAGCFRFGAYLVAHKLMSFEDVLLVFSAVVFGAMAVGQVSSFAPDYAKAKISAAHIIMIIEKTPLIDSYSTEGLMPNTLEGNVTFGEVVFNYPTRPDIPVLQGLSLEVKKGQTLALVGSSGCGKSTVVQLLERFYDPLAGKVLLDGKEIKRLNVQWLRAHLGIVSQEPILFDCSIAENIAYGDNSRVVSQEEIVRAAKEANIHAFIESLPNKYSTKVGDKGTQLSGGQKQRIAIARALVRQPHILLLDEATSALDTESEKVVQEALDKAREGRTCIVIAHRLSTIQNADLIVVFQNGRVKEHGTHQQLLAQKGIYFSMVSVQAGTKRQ

Activity, substrate [+]:
CISPLATIN
CC(=O)O[C@H]1C(=O)[C@@]2(C)[C@H]([C@H](OC(=O)c3ccccc3)[C@]3(O)C[C@H](OC(=O)[C@H](O)[C@@H](NC(=O)c4ccccc4)c4ccccc4)C(C)=C1C3(C)C)[C@]1(OC(C)=O)CO[C@@H]1C[C@@H]2O [PACLITAXEL]
COc1cccc2c1C(=O)c1c(O)c3c(c(O)c1C2=O)C[C@@](O)(C(=O)CO)C[C@@H]3O[C@H]1C[C@H](N)[C@H](O)[C@H](C)O1 [DOXORUBICIN]
